Measurements: a melting point compilation (Tetko et al.; mined from patent text by program, amines drawn as free bases though some values may be those of a salt)

| Compound | melting point |
| --- | --- |
| Cn1c(=O)cc(-c2ccccc2)c2cc(C(COCc3ccc(Cl)cc3)(c3ccc(Cl)cc3)n3ccnc3)ccc21 (stereo not given) | 177 °C |
| O=C=Nc1ccc2c(c1)C(=O)CC2 | 72 °C |
| COc1cc2c(cc1Nc1ncc(Cl)c(Nc3ccccc3S(=O)(=O)N(C)C)n1)CCN(CC(C)(C)O)CC2 | 188 to 189 °C |
| CCCc1cc(OC)c(OC)c(C(=O)NC[C@@H]2CCCN2CC)c1OC | 68 to 70 °C |
| CC(C)(C)[Si](C)(C)Oc1ccc2cc3c(cc2c1)C(=O)c1cc2cc(O[Si](C)(C)C(C)(C)C)ccc2cc1C3=O | > 270 °C |
| CC1(C)NC(=O)N(CSc2cc(C(C)(C)C)c(O)c(C(C)(C)C)c2)C1=O | 160 to 162 °C |
| CCOC(=O)C(=O)Nc1cccc(-c2nnn[nH]2)c1 | 192 to 193 °C |
| N#CCc1ccnc2c(NC(=O)c3c(Cl)cccc3Cl)cccc12 | 234 to 236 °C |
| Cc1ccc(C(=O)Nc2ccc(NCC(C)O)c(C(F)(F)F)c2)cc1Nc1nccc(-c2cccnc2)n1 (stereo not given) | 184 to 186 °C |
| CCc1cccc(CC)c1NC(=O)C(Cc1ccccc1)NC(C)=O (stereo not given) | 205 to 206 °C |
| N#Cc1ccc(C=Cc2ccc(C#N)cc2)cc1 | 288 °C |
| N#Cc1[nH]c2ccc(Cl)cc2c1-c1c(F)cccc1F | 199 to 200 °C |
| N#CN(Cc1ccccc1)C(=O)CCCC(=O)N(C#N)Cc1ccccc1 | 97.5 to 100 °C |
| CNc1cc(C(F)(F)F)on1 | 39 to 41 °C |
| CC1(C)C(=O)NC(=O)c2c1ccc(N)c2[N+](=O)[O-] | 259 to 263 °C |
| Nc1ccc(-c2cccnc2)c(C(F)(F)F)c1 | 92 to 93 °C |
| O=C(O)Cc1noc2cc(F)ccc12 | 132 to 133 °C |
| CN1CCN(C2=N/C(=C\c3c[nH]c4ncc(-c5ccccc5)cc34)C(=O)N2)CC1 | 304 °C |
| COC(=O)n1nc(C(=O)NC2CN(C)CCN(Cc3ccccc3)C2)c2ccccc21 (stereo not given) | 158 to 160 °C |
| COc1cc(CNC(=S)NC(COC(=O)C(C)(C)C)Cc2ccc(C)c(C)c2)ccc1OCCN (stereo not given) | 62 to 63 °C |
| CCCc1nnc(C(Cc2ccc(-c3cccc(CN(C)C(=O)c4ccccc4)c3)cc2)Nc2ccccc2C(=O)c2ccccc2)o1 (stereo not given) | 65 °C |
| C=CCOC(=O)c1ccc(COC(=O)c2ccc(OC(C)C)c(C(C)(C)C)c2)cc1 | 63 to 64 °C |
| CCOC(=O)c1cc(NCc2c(C)cccc2C)c2nc(C)n(OC)c2c1 | 165 to 166 °C |
| CN1CCN(NC(=O)Nc2cccc3c2C(=O)c2c-3n[nH]c2-c2ccc(N3CCN(C)CC3)cc2)CC1 | 293 °C |
| CNc1nc(C)nc(N2CCCc3ccccc32)n1 | 159 to 160 °C |

| Compound | melting point |
| --- | --- |
| Cc1ccc(S(=O)(=O)c2ccc(N3CCN(C)CC3)cc2N)cc1 | 148 to 151 °C |
| O=C1NC(=O)c2c1c(O)nc1cc(Cl)ccc21 | > 350 °C |
| O=Cc1cc(F)cc2c1OCCC2 | 55 to 57 °C |
| COC(=O)c1ccc(Cc2cccc3ccc(C=C(C)C(=O)O)cc23)c(OC)c1 | 187 to 188 °C |
| C/C(=C\c1ccc(-c2ccccc2)cc1)C(=O)O | 178 °C |
| COc1c(C)cnc(CSc2nc3cc4c(cc3[nH]2)OC(F)C(F)(F)O4)c1C (stereo not given) | 138 to 140 °C |
| CSc1nnc(-c2ccco2)s1 | 128 °C |
| Oc1ccc2c(c1)Sc1ccccc1CN2 | 172 to 174 °C |
| Cc1cccc2oc(Nc3ccc(C(=O)O)cc3)nc12 | 327 to 329 °C |
| O=C(c1ccccc1)N1CC2C(C1)C2Nc1ncc2cc(-c3ccccc3Cl)c(=O)n(-c3ccc(F)cc3)c2n1 (stereo not given) | 242 to 244 °C |
| COc1cc(C(C)C#Cc2c(C)nc(N)nc2N)cc(OC)c1OC (stereo not given) | 191 to 193 °C |
| NC(=O)c1c(F)cccc1[N+](=O)[O-] | 161 to 162 °C |
| CC(=O)OCC1OC(OCCBr)C(OC(C)=O)C(OC(C)=O)C1OC(C)=O (stereo not given) | 116 to 117 °C |
| COc1ccc(OC)c2c1C(=O)c1ccc(-c3nnn[nH]3)cc1C2=O | 260 to 262 °C |
| CCn1nc(-c2ccccc2)c(C(C)=O)c(Nc2cccc3nnc(C)cc23)c1=O | 235 to 238 °C |
| Cc1ccccc1-c1cc(Cl)cc2c1OC(CN)C2 (stereo not given) | 160 to 163 °C |
| CC(C)(Oc1ccc(OC(CCC(F)(F)F)c2cccc3c2cnn3-c2ccc(C(F)(F)F)cc2)cc1)C(=O)O (racemic) | 175 to 180 °C |
| Nc1ccccc1/C=C/c1ncon1 | 108 to 109 °C |
| COC(=O)C1=C(C)NC(C)=C(C(=O)c2ccco2)C1c1ccccc1[N+](=O)[O-] (stereo not given) | 90 to 92 °C |
| CN1C(=O)C(NS(=O)(=O)CC23CCC(CC2=O)C3(C)C)N=C(c2ccccc2)c2ccccc21 (stereo not given) | 204 to 206 °C |
| CC(C)(C)Nc1nc(Cl)nc(Cl)n1 | 129 to 130 °C |
| OCc1c(Cl)nc(C2CCCC2)n1Cc1ccccc1 | 102 to 103 °C |
| NC(=O)C(=Cc1c[nH]c2ncccc12)c1ccccc1 | 222 to 224 °C |
| COc1ccc(C=Cc2ccc(C#N)cc2)cc1 | 146 to 148 °C |
| COC1C(CO)OC(n2c3ccc(CO)cc3c3c4c(c5c6cc(CO)ccc6[nH]c5c32)C(=O)NC4=O)C(O)C1O (stereo not given) | > 300 °C |
